Experiments:
[1] = test system: undifferentiated stem-like glioma cells (SLGCs); experiment: Methylene blue viability, undifferentiated SLGCs; format: cell-based; details: up to 100 μM, 72 hours, 2% fetal bovine serum
Procedure: (§1) For the high-throughput screens, relative cell number was determined using a CellTiter-Glo® Luminescent Cell Viability Assay as described hereinabove. Otherwise, relative cell numbers were determined by fixating the cells with 0.5% glutardialdehyde and staining with methylene blue dissolved in 0.1 M boric acid (pH 8.5). Color extraction was performed using 0.1 M hydrochloric acid, and the staining (which is proportional to cell number) was quantified by measuring absorbance at a wavelength of 650 nm.
(§2) In a second experiment, undifferentiated stem-like glioma cells (SLGCs) were compared with SLGCs differentiated by monolayer adhesion and exposure to 1 μM retinoic acid for one week, in accordance with procedures described by Campos et al. [Clinical Cancer Research 16:2715-2728 (2010)]. Differentiation of SLGCs is associated with a reduction in tumorigenicity [Campos et al., Clinical Cancer Research 16:2715-2728 (2010)].
(§3) The differentiated and undifferentiated cells were exposed to PluriSIn #1 at concentrations of up to 100 μM for 72 hours under low (2%) fetal bovine serum conditions. Their viability was then measured using a methylene blue viability assay, as described hereinabove.

differentiated SLGCs = experiment: Methylene blue viability, differentiated SLGCs; format: cell-based; details: up to 100 μM, 72 hours, 2% fetal bovine serum
Procedure: as §1, §2, §3

## O=C(NNc1ccccc1)c1ccncc1 [PluriSIn #1, isonicotinic acid N′-phenylhydrazide]
[1]
  cytotoxicity towards undifferentiated SLGC: highly cytotoxic
Differentiated SLGCs
  effect on differentiated SLGCs: no apparent effect

Reference: patent US20180153830A1, “SELECTIVE INHIBITORS OF UNDIFFERENTIATED CELLS” (Yissum Research Development Company of the Hebrew …, priority 2012, published 2018)
